Results from patent US6680327B2, “Crystalline form VII of cabergoline” (Pharmacia Italia SpA, priority 2000, dated 2004).

Columns and labels:
[1] = thermodynamic stability of cabergoline polymorphs; assay type: physicochemical
Method: It can be readily prepared by slurry of form I or mixture of form I and VII in a solvent at a temperature over 30° C. The importance of cabergoline form VII rests primarily (but not exclusively) in thermodynamic stability.
The present invention also provides a process for producing crystalline cabergoline Form VII by subjecting crystals of form I or a mixture of crystals form I and VII to a slurry procedure at a temperature over 30° C. Preferably, the process comprises suspending crystals of form I or a mixture of crystals form I and VII in an organic solvent, such as n-heptane, diethyl ether, or n-hexane, at a temperature of from +30° to +80° C., more preferably about 55° C. The resultant suspension is then stirred at this temperature for about from 24 to 120 hours, more preferably for about 48 hours.

prolactine = test: inhibitory effect with regard prolactine; conditions: statement in words, no test described

C=CCN1C[C@H](C(=O)N(CCCN(C)C)C(=O)NCC)C[C@@H]2c3cccc4[nH]cc(c34)C[C@H]21 [Form VII, 1((6-allylergolin-8beta-yl)-carbonyl)-1-(3-dimethylaminopropyl)-3-ethylurea]
stability with respect to form I ([1]; compared with form I): greater stability
thermodynamic stability of the polymorph ([1]; range of temperature between +30° and +80° C.): thermodynamically most stable polymorph
inhibitory effect with regard prolactine (prolactine): significant inhibitory effect
